Test results as given in ChEMBL document CHEMBL1153052, “Identification of new Hsp90 inhibitors by structure-based virtual screening” (Bioorg Med Chem Lett, 2009).
Activity calls are given as the source filed them. No cut-off for these calls is given here.

Key:
[1] = molecular target: T1, Heat shock protein HSP90 (Homo sapiens) (UniProt P07900+P08238); experiment: Inhibition of Hsp90 in human MCF7 cells assessed as Her2 degradation at 20 to 40 uM after 24 hrs by Western blotting; assay type: cell-based
[2] = molecular target: T1, Heat shock protein HSP90 (Homo sapiens); experiment: Inhibition of Hsp90 in human MCF7 cells assessed as induction of Hsp70 expression at 20 to 40 uM after 24 hrs by Western blotting; assay type: cell-based
[3] = molecular target: ATP-dependent molecular chaperone HSP82 (Saccharomyces cerevisiae S288c, UniProt P02829); experiment: Inhibition of yeast Hsp90 ATPase activity by ATPase assay using malachite green colorimetric method
ATP-dependent molecular chaperone HSP82, sequence (P02829 whole entry): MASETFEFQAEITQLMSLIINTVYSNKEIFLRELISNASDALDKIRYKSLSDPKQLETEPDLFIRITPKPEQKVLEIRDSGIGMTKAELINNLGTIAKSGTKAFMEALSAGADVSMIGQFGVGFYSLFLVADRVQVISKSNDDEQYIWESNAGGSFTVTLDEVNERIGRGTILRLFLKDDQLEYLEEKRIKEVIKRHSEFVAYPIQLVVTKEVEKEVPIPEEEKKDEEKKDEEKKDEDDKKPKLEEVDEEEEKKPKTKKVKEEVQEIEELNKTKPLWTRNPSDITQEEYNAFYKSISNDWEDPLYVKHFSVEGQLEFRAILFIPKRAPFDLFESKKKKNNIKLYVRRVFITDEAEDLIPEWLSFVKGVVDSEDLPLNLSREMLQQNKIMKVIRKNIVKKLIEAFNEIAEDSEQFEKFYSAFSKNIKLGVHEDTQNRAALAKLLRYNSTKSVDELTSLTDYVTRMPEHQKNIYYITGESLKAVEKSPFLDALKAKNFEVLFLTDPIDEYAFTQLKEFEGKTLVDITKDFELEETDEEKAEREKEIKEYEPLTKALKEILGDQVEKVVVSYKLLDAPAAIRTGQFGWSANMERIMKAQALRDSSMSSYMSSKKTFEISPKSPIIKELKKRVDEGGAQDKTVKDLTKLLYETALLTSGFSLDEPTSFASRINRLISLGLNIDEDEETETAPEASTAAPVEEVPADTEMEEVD

MCF7 = experiment: Cytotoxicity against human MCF7 cells by SRB assay; assay type: functional, cell-based

COc1ccc(-c2cc(-c3nnc(S)n3-c3cccc4ccccc34)[nH]n2)cc1
Activity [1]: Active | Activity [2]: inactive

O=C1NC(=O)N(c2ccccc2F)C(=O)/C1=C\c1cn(Cc2ccccc2)c2ccccc12
IC50 [3]: 24.6 µM | IC50 (MCF7): 18.1 µM | Activity [1]: Active | Activity [2]: Active

Cc1cccc(N2C(=O)NC(=O)/C(=C/c3ccccc3OCC(=O)O)C2=O)c1
Activity [1]: Active | Activity [2]: inactive

O=C(CSc1nnc(-c2ccc3c(c2)OCO3)n1-c1ccccc1)c1ccccc1
IC50 [3]: 15.4 µM | IC50 (MCF7): 44.6 µM | Activity [1]: Active | Activity [2]: inactive

COC1=C2C[C@@H](C)C[C@H](OC)[C@H](O)[C@@H](C)/C=C(\C)[C@H](OC(N)=O)[C@@H](OC)/C=C\C=C(/C)C(=O)NC(=CC1=O)C2=O [GELDANAMYCIN]
IC50 (MCF7): 9.6 µM

O=C(CSc1nnc(-c2cccnc2)n1-c1ccccc1)NCc1ccccc1
Activity [1]: Active | Activity [2]: inactive

CCOc1cc(/C=C2\C(=O)NC(=O)N(Cc3ccccc3)C2=O)ccc1O
Activity [2]: inactive
